Laboratory results: patent US20240417406A1, “NITROGEN-CONTAINING TRICYCLIC COMPOUND AND PHARMACEUTICAL USE THEREOF” (JAPAN TOBACCO INC., priority 2021, published 2024)
pIC50: −log10 of the molar value.

Target: human PDHK2 (hPDHK2) (Homo sapiens (Human), UniProt Q15119)
Experiment: Inhibitory action of PDHK2 activity (PDH/hPDHK2 complex, residual PDH activity by NADH absorbance at 340 nm)
Format: biochemical
Conditions: FLAG-tagged recombinant hPDHK2 with porcine heart PDH complex; PDHK reaction 45 min at room temperature
Method: In the case of human PDHK2 (hPDHK2, NCBI Reference Database Accession number NM_002611.4), modified hPDHK2 cDNA wherein FLAG-Tag sequence was added to the N terminal of hPDHK2 cDNA clone (pReceiver-M01/PDK2-GeneCopoeia) as the base was prepared by polymerase chain reaction (PCR) and ligated to the NdeI/EcoRI site of pET-17b vector (Merck KGaA, Catalog Number 69663-3). The recombinant construct was transformed into Escherichia coli DH5a. The recombinant clones were identified, and plasmid DNA was isolated and subjected to the DNA sequence analysis. One clone which had the expected nucleic acid sequence was selected for expression work.
For expression of hPDHK2 activity, Escherichia coli strain BL21(DE3) cells (Merck KGaA, Catalog Number 69450-4) were transformed with the pET17b vector containing modified hPDHK2 cDNA. The Escherichia coli were grown to an optical density 0.6 ([…]) at 30° C. Protein expression was induced by the addition of 500 μmol/L isopropyl-β-thiogalactopyranoside. The Escherichia coli were cultured at 20° C. for 17 to for 18 hr and harvested by centrifugation. The harvested Escherichia coli was resuspended in a suspension buffer (20 mmol/L HEPES-NaOH, 500 mmol/L sodium chloride, 1% ethylene glycol, 0.1% Pluronic (registered trademark) F-68 (pH 8.0), cOmplete, EDTA-free (Roche) (pH 8.0)), and disrupted by a microfluidizer M-110H (MIZUHO INDUSTRIAL CO., LTD.). The precipitate was removed by centrifugation and the supernatant was added to DDDDK-tagged Protein PURIFICATION GEL (MEDICAL & BIOLOGICAL LABORATORIES CO., LTD., Code No. 3329). DDDDK-tagged Protein PURIFICATION GEL was washed with a washing buffer (20 mmol/L HEPES-NaOH, 500 mmol/L sodium chloride, 1% ethylene glycol, 0.1% Pluronic F-68 (pH 8.0)) and the bound protein was eluted with elution buffer 1 (20 mmol/L HEPES-NaOH, 100 μg/mL peptide (amino acid sequence DYKDDDDK) (SEQ ID NO: 1), 500 mmol/L sodium chloride, 1% ethylene glycol, 0.1% Pluronic F-68 (pH 8.0)). The eluted fractions containing FLAG-Tagged protein were pooled, concentrated by an ultrafiltration method, added to a gel filtration column (HiLoad 26/60 Superdex 200 (GE Healthcare Life Sciences, Code No. 17-1070-01)), and eluted with elution buffer 2 (20 mmol/L HEPES-NaOH, 150 mmol/L sodium chloride, 0.5 mmol/L ethylenediaminetetraacetic acid (EDTA), 1% ethylene glycol, 0.1% Pluronic F-68 (pH 8.0)). The eluted fractions were pooled and preserved at −80° C.
PDH (porcine heart PDH complex, Sigma P7032) and 0.5 μg/mL hPDHK2 were mixed in an assay buffer (50 mmol/L 3-morpholinopropanesulfonic acid (pH 7.0), 20 mmol/L dipotassium hydrogen phosphate, 60 mmol/L potassium chloride, 2 mmol/L magnesium chloride, 0.4 mmol/L EDTA, 0.2% poloxamer, 2 mmol/L dithiothreitol) so that the final concentration of PDH was 0.025 U/mL, and the mixture was incubated at 4° C. overnight to obtain a PDH/hPDHK2 complex solution.
PDH was mixed with the assay buffer so that the final concentration was 0.025 U/mL, and the mixture was incubated at 4° C. overnight to prepare a PDH solution.
The test compounds were diluted with DMSO. […] DMSO (1.5 μL) was added to control wells instead of test compound. In addition, DMSO (1.5 μL) was added to blank wells instead of the test compound, and PDH solution was added instead of the PDH/hPDHK2 complex solution. To measure an inhibitory action of the test compound on the PDHK activity inherent in the PDH solution, a test compound was added and the PDH solution instead of the PDH/hPDHK2 complex solution was added to a blank+test compound well.
Then, 10 μL of substrates (5 mmol/L sodium pyruvate, 5 mmol/L Coenzyme A, 12 mmol/L NAD, 5 mmol/L thiamine pyrophosphate, diluted with assay buffer) were added. The mixture was incubated at room temperature for 90 min, and the residual PDH activity was measured.
The absorbance of each well at 340 nm was measured using a microplate reader to detect NADH produced by the PDH reaction. […]

Compound	pIC50
C[C@H]1Cn2nc(OCC(C)(C)O)cc2-c2onc([C@@](C)(O)C(F)(F)F)c21 (racemic) [Example 14]	7.84
C[C@H]1Cn2nc(OCc3ccccc3)cc2-c2onc([C@@](C)(O)C(F)(F)F)c21 (racemic) [Example 15]	7.96
C[C@H]1Cc2c(cnn2C(C)(C)C)-c2onc([C@@](C)(O)C(F)(F)F)c21 (racemic) [Example 16]	7.91
C[C@H]1Cn2nccc2-c2onc([C@@](C)(O)C(F)(F)F)c21 (racemic) [Example 17]	7.67
C[C@H]1Cc2c(cnn2C2CC2)-c2onc([C@@](C)(O)C(F)(F)F)c21 (racemic) [Example 18]	7.90
C[C@H]1Cc2[nH]ncc2-c2onc([C@@](C)(O)C(F)(F)F)c21 (racemic) [Example 20]	7.65
C[C@H]1Cc2c(cnn2C(F)F)-c2onc([C@@](C)(O)C(F)(F)F)c21 (racemic) [Example 21]	7.70
C[C@H]1Cc2nn(C(F)F)cc2-c2onc([C@@](C)(O)C(F)(F)F)c21 (racemic) [Example 22]	7.65
C[C@H]1Cc2nn(C)cc2-c2onc([C@@](C)(O)C(F)(F)F)c21 (racemic) [Example 23]	7.73
C[C@H]1Cc2c(cnn2C)-c2onc([C@@](C)(O)C(F)(F)F)c21 (racemic) [Example 24]	7.60
C[C@H]1Cc2nn(CCC#N)cc2-c2onc([C@@](C)(O)C(F)(F)F)c21 (racemic) [Example 32]	7.70
C[C@H]1Cn2nc(OCCC(C)(C)O)cc2-c2onc([C@@](C)(O)C(F)(F)F)c21 (racemic) [Example 34]	7.83
C[C@H]1Cn2nc(OC3CCOCC3)cc2-c2onc([C@@](C)(O)C(F)(F)F)c21 (racemic) [Example 35]	7.75
C[C@H]1Cn2nc(O[C@H]3CCOC3)cc2-c2onc([C@@](C)(O)C(F)(F)F)c21 (racemic) [Example 36]	7.85
C[C@H]1Cn2nc(O[C@H]3CC[C@](C)(O)CC3)cc2-c2onc([C@@](C)(O)C(F)(F)F)c21 (racemic) [Example 37]	7.76
C[C@H]1Cc2nn(CC(C)(C)O)cc2-c2onc([C@@](C)(O)C(F)(F)F)c21 (racemic) [Example 38]	7.60
C[C@H]1Cc2c(cnn2CC(C)(C)O)-c2onc([C@@](C)(O)C(F)(F)F)c21 (racemic) [Example 39]	7.84

Second part, the compound after the results:

pIC50	Compound
7.72	C[C@H]1Cn2nc(OCC#N)cc2-c2onc([C@@](C)(O)C(F)(F)F)c21 (racemic) [Example 42]
7.74	C[C@H]1Cn2nc(OCF)cc2-c2onc([C@@](C)(O)C(F)(F)F)c21 (racemic) [Example 44]
7.58	C[C@H]1Cn2nc(OC(F)F)cc2-c2onc([C@@](C)(O)C(F)(F)F)c21 (racemic) [Example 45]
7.80	C[C@H]1Cn2nc(OCC3COC3)cc2-c2onc([C@@](C)(O)C(F)(F)F)c21 (racemic) [Example 46]
7.59	C[C@H]1Cn2nc(O[C@H]3C[C@](C)(C#N)C3)cc2-c2onc([C@@](C)(O)C(F)(F)F)c21 (racemic) [Example 47]
7.74	C[C@H]1Cn2nc(O[C@H]3C[C@@](C)(C#N)C3)cc2-c2onc([C@@](C)(O)C(F)(F)F)c21 (racemic) [Example 48]
7.84	C[C@H]1Cc2c(cnn2CC#N)-c2onc([C@@](C)(O)C(F)(F)F)c21 (racemic) [Example 50]
7.86	C[C@H]1Cc2c(cnn2C23CC(C#N)(C2)C3)-c2onc([C@@](C)(O)C(F)(F)F)c21 (racemic) [Example 51]
7.82	C[C@H]1Cn2nc(C3CCOCC3)cc2-c2onc([C@@](C)(O)C(F)(F)F)c21 (racemic) [Example 52]
8.06	C[C@H]1Cc2c(cnn2[C@H]2C[C@](C)(C#N)C2)-c2onc([C@@](C)(O)C(F)(F)F)c21 (racemic) [Example 53, (1S,3r)-1-methyl-3-((S)-4-methyl-3-((R)-1,1,1-trifluoro-2-hydroxypropan-2-yl)-4,5-dihydro-6H-isoxazolo[5,4-e]indazol-6-yl)cyclobutane-1-carbonitrile and enantiomer thereof]
8.14	C[C@H]1Cc2nn([C@H]3C[C@](C)(C#N)C3)cc2-c2onc([C@@](C)(O)C(F)(F)F)c21 (racemic) [Example 54, (1S,3r)-1-methyl-3-((S)-4-methyl-3-((R)-1,1,1-trifluoro-2-hydroxypropan-2-yl)-4,5-dihydro-7H-isoxazolo[5,4-e]indazol-7-yl)cyclobutane-1-carbonitrile and enantiomer thereof]
7.84	C[C@H]1Cc2nn([C@H]3CC[C@](C)(O)CC3)cc2-c2onc([C@@](C)(O)C(F)(F)F)c21 (racemic) [Example 55, (1S,4r)-1-methyl-4-((S)-4-methyl-3-((R)-1,1,1-trifluoro-2-hydroxypropan-2-yl)-4,5-dihydro-7H-isoxazolo[5,4-e]indazol-7-yl)cyclohexan-1-ol and enantiomer thereof]
7.97	C[C@H]1Cc2c(cnn2[C@H]2CC[C@](C)(O)CC2)-c2onc([C@@](C)(O)C(F)(F)F)c21 (racemic) [Example 56, (1S,4r)-1-methyl-4-((S)-4-methyl-3-((R)-1,1,1-trifluoro-2-hydroxypropan-2-yl)-4,5-dihydro-6H-isoxazolo[5,4-e]indazol-6-yl)cyclohexan-1-ol and enantiomer thereof]
7.55	C[C@H]1Cc2c(cnn2[C@H]2C[C@@](C)(C#N)C2)-c2onc([C@@](C)(O)C(F)(F)F)c21 (racemic) [Example 57, (1R,3s)-1-methyl-3-((S)-4-methyl-3-((R)-1,1,1-trifluoro-2-hydroxypropan-2-yl)-4,5-dihydro-6H-isoxazolo[5,4-e]indazol-6-yl)cyclobutane-1-carbonitrile and enantiomer thereof]
7.69	C[C@H]1Cc2nn([C@H]3C[C@@](C)(C#N)C3)cc2-c2onc([C@@](C)(O)C(F)(F)F)c21 (racemic) [Example 58, (1R,3s)-1-methyl-3-((S)-4-methyl-3-((R)-1,1,1-trifluoro-2-hydroxypropan-2-yl)-4,5-dihydro-7H-isoxazolo[5,4-e]indazol-7-yl)cyclobutane-1-carbonitrile and enantiomer thereof]
7.63	C[C@H]1Cn2nc(C(F)(F)F)cc2-c2cnnc([C@@](C)(O)C(F)(F)F)c21 (racemic) [Example 99, mixture of (R)-1,1,1-trifluoro-2-((R)-5-methyl-9-(trifluoromethyl)-5,6-dihydropyrazolo[1′,5′:1,2]pyrido[3,4-d]pyridazin-4-yl)propan-2-ol and (S)-1,1,1-trifluoro-2-((S)-5-methyl-9-(trifluoromethyl)-5,6-dihydropyrazolo[1′,5′:1,2]pyrido[3,4-d]pyridazin-4-yl)propan-2-ol]
